# Several values for one entry are separate records, joined by “and”; a condition that tells them apart may be missing. Equal values may be shown once. Inconclusive results and toxic doses are left out.
# Test system: BDF1 mice, M5076 sarcoma ip, median survival T/C
# Test: NCI In Vivo Anticancer Drug Screen. Data for tumor model Sarcoma M5076 (intraperitoneal) in B6D2F1 (BDF1) mice
# Details: endpoint: median survival time, higher = longer survival
# Protocol: The antitumor activity of compounds was measured in mice bearing transplantable tumors. Survival or tumor size were measured and the results are expressed as the measurement made in the treated group (T) divided by the measurement made in the vehicle treated control group (C). The tumor model used in this assay is Sarcoma M5076 (intraperitoneal) in B6D2F1 (BDF1) mice
# [1] = dose: 100.0 mg/kg/injection, schedule: Q04DX004 (ip), vehicle: saline
structure (smiles),measurement,setting,value
CC(=O)/C(=C\c1ccc(Cl)c(Cl)c1)C(=O)CCN(C)C,T/C,"dose: 12.5 mg/kg/injection, schedule: Q04DX004 (ip), vehicle: saline",100 % of control
same,T/C,"dose: 25.0 mg/kg/injection, schedule: Q04DX004 (ip), vehicle: saline",97 % of control
same,T/C,"dose: 50.0 mg/kg/injection, schedule: Q04DX004 (ip), vehicle: saline",101 % of control
same,T/C,[1],86 % of control
COC1=C(C)C(=O)C2=C(C1=O)C(CO)N1C(C#N)C3CC4C(C1C2N1CCOC41)N3C (stereo not given),T/C,"dose: 0.06 mg/kg/injection, schedule: Q01DX009 (ip), vehicle: saline + alcohol",116 % of control
same,T/C,"dose: 0.13 mg/kg/injection, schedule: Q01DX009 (ip), vehicle: saline + alcohol",95 % of control
same,T/C,"dose: 0.25 mg/kg/injection, schedule: Q01DX009 (ip), vehicle: saline + alcohol",98 % of control
same,T/C,"dose: 0.5 mg/kg/injection, schedule: Q01DX009 (ip), vehicle: saline + alcohol",103 % of control
same,T/C,"dose: 1.0 mg/kg/injection, schedule: Q01DX009 (ip), vehicle: saline + alcohol",122 % of control
same,T/C,"dose: 62.5 micrograms/kg/injection, schedule: Q01DX009 (ip), vehicle: acid diluted with saline",107 % of control
same,T/C,"dose: 125.0 micrograms/kg/injection, schedule: Q01DX009 (ip), vehicle: acid diluted with saline",96 % of control
same,T/C,"dose: 250.0 micrograms/kg/injection, schedule: Q01DX009 (ip), vehicle: acid diluted with saline",96 % of control
same,T/C,"dose: 500.0 micrograms/kg/injection, schedule: Q01DX009 (ip), vehicle: acid diluted with saline",109 % of control
O=P1(N(CCCl)CCCl)NCCCO1 (stereo not given),T/C,"dose: 10.0 mg/kg/injection, schedule: Q04DX005 (ip), vehicle: saline",180 % of control
Nc1nc(=S)c2[nH]cnc2[nH]1,T/C,"dose: 0.75 mg/kg/injection, schedule: Q04DX005 (ip), vehicle: alkali diluted with saline",101 % of control
same,T/C,"dose: 2.0 mg/kg/injection, schedule: Q04DX005 (ip), vehicle: alkali diluted with saline",92 % of control
same,T/C,"dose: 6.0 mg/kg/injection, schedule: Q04DX005 (ip), vehicle: alkali diluted with saline",157 % of control
O=NN(CCCl)C(=O)NC1CCCCC1,T/C,"dose: 6.0 mg/kg/injection, schedule: Q01DX005 (sc), vehicle: other",256 % of control
same,T/C,"dose: 12.0 mg/kg/injection, schedule: Q01DX005 (sc), vehicle: other",256 % of control
CC(=O)N(C)O,T/C,"dose: 37.0 mg/kg/injection, schedule: Q04DX004 (ip), vehicle: saline with Tween-80",99 % of control
same,T/C,"dose: 75.0 mg/kg/injection, schedule: Q04DX004 (ip), vehicle: saline with Tween-80",107 % of control
same,T/C,"dose: 150.0 mg/kg/injection, schedule: Q04DX004 (ip), vehicle: saline with Tween-80",107 % of control
same,T/C,"dose: 300.0 mg/kg/injection, schedule: Q04DX004 (ip), vehicle: saline with Tween-80",113 % of control
same,T/C,"dose: 600.0 mg/kg/injection, schedule: Q04DX004 (ip), vehicle: saline with Tween-80",103 % of control
COC(=O)NC1C(C)OC(OC2C/C=C(/C)C3C=CC4C(OC5CC(OC6CCC(OC7CC(O)C(OC8CCC(O)C(C)O8)C(C)O7)C(C)O6)C(OC(C)=O)C(C)O5)C(C)CC(C)C4C3(C)/C(O)=C3/C(=O)OC4(CC(C=O)=CC(O)C4/C=C\2C)C3=O)CC1(C)[N+](=O)[O-] (stereo not given),T/C,"dose: 2.5 mg/kg/injection, schedule: Q04DX004 (ip), vehicle: water",107 % of control
same,T/C,"dose: 5.0 mg/kg/injection, schedule: Q04DX004 (ip), vehicle: water",96 % of control
same,T/C,"dose: 10.0 mg/kg/injection, schedule: Q04DX004 (ip), vehicle: water",103 % of control
COc1cc2nc3occc3c(OC)c2cc1OCC(O)C(C)(C)O (stereo not given),T/C,"dose: 2.0 mg/kg/injection, schedule: Q01DX009 (ip), vehicle: Klucel (hydroxypropylcellulose) (HPC)",106 % of control
same,T/C,"dose: 4.0 mg/kg/injection, schedule: Q01DX009 (ip), vehicle: Klucel (hydroxypropylcellulose) (HPC)",117 % of control
same,T/C,"dose: 8.0 mg/kg/injection, schedule: Q01DX009 (ip), vehicle: Klucel (hydroxypropylcellulose) (HPC)",106 % of control
same,T/C,"dose: 16.0 mg/kg/injection, schedule: Q01DX009 (ip), vehicle: Klucel (hydroxypropylcellulose) (HPC)",113 % of control
same,T/C,"dose: 32.0 mg/kg/injection, schedule: Q01DX009 (ip), vehicle: Klucel (hydroxypropylcellulose) (HPC)",106 % of control
O=C1C2C3C=CC(C2C(=O)N1CO)C1C2C(=O)N(CO)C(=O)C2C31 (stereo not given),T/C,"dose: 12.5 mg/kg/injection, schedule: Q04DX004 (ip), vehicle: water",106 % of control
same,T/C,"dose: 25.0 mg/kg/injection, schedule: Q04DX004 (ip), vehicle: water",105 % of control
same,T/C,"dose: 50.0 mg/kg/injection, schedule: Q04DX004 (ip), vehicle: water",106 % of control
COc1cc2cc(c1Cl)N(C)C(=O)C[C@H](OC(=O)[C@H](C)N(C)C(C)=O)[C@]1(C)O[C@H]1[C@H](C)[C@@H]1C[C@@](O)(NC(=O)O1)[C@H](OC)C=C/C=C(\C)C2,T/C,"dose: 37.0 micrograms/kg/injection, schedule: Q04DX004 (ip), vehicle: saline",117 % of control
same,T/C,"dose: 37.0 micrograms/kg/injection, schedule: Q04DX005 (ip), vehicle: saline",113 % of control
same,T/C,"dose: 75.0 micrograms/kg/injection, schedule: Q04DX004 (ip), vehicle: saline",112 % of control
same,T/C,"dose: 75.0 micrograms/kg/injection, schedule: Q04DX005 (ip), vehicle: saline",123 % of control
same,T/C,"dose: 150.0 micrograms/kg/injection, schedule: Q04DX004 (ip), vehicle: saline",119 % of control
Oc1cc(O)c(-c2c(O)cc(O)cc2O)c(O)c1 (tested in a mixture with another compound),T/C,"dose: 1.56 mg/kg/injection, schedule: Q01DX009 (ip), vehicle: saline",118 % of control
same,T/C,"dose: 3.12 mg/kg/injection, schedule: Q01DX009 (ip), vehicle: saline",122 % of control
same,T/C,"dose: 3.75 mg/kg/injection, schedule: Q01DX009 (ip), vehicle: saline",119 % of control
same,T/C,"dose: 6.25 mg/kg/injection, schedule: Q01DX009 (ip), vehicle: saline",118 % of control
same,T/C,"dose: 12.5 mg/kg/injection, schedule: Q01DX009 (ip), vehicle: saline",123 % of control
same,T/C,"dose: 15.0 mg/kg/injection, schedule: Q01DX009 (ip), vehicle: saline",123 % of control
COc1cc2c(cc1OC)C1C(=O)c3ccc4c(c3OC1CO2)CC(C(C)(O)CO)O4 (stereo not given),T/C,"dose: 2.0 mg/kg/injection, schedule: Q01DX009 (ip), vehicle: DMSO",110 % of control
same,T/C,"dose: 4.0 mg/kg/injection, schedule: Q01DX009 (ip), vehicle: DMSO",96 % of control
same,T/C,"dose: 8.0 mg/kg/injection, schedule: Q01DX009 (ip), vehicle: DMSO",99 % of control
COC(=O)[C@@]12OC[C@]34[C@H]([C@@H](O)[C@@H]1O)[C@@]1(C)CC(=O)C(O)=C(C)[C@@H]1C[C@H]3OC(=O)[C@H](OC(=O)/C=C(\C)C(C)C)[C@@H]24,T/C,"dose: 0.12 mg/kg/injection, schedule: Q04DX004 (ip), vehicle: saline",104 % of control and 107 % of control and 113 % of control
same,T/C,"dose: 0.12 mg/kg/injection, schedule: Q04DX005 (ip), vehicle: saline",108 % of control (2×) and 116 % of control
same,T/C,"dose: 0.13 mg/kg/injection, schedule: Q04DX004 (ip), vehicle: saline",111 % of control and 114 % of control
same,T/C,"dose: 0.13 mg/kg/injection, schedule: Q04DX005 (ip), vehicle: saline",106 % of control and 114 % of control
O=c1[nH]cc(F)c(=O)[nH]1,T/C,"dose: 6.25 mg/kg/injection, schedule: Q04DX005 (ip), vehicle: saline",185 % of control
same,T/C,"dose: 16.0 mg/kg/injection, schedule: Q01DX009 (ip), vehicle: saline",117 % of control
same,T/C,"dose: 21.6 mg/kg/injection, schedule: Q04DX004 (ip), vehicle: saline",123 % of control
same,T/C,"dose: 50.0 mg/kg/injection, schedule: Q04DX005 (ip), vehicle: saline",112 % of control
same,T/C,[1],154 % of control
same,T/C,"dose: 100.0 mg/kg/injection, schedule: Q04DX005 (ip), vehicle: saline",176 % of control
CC1(C)N=C(N)N=C(N)N1c1ccc(CCCCc2ccc(S(=O)(=O)F)cc2Cl)c(Cl)c1,T/C,"dose: 5.0 mg/kg/injection, schedule: Q01DX009 (ip), vehicle: Klucel (hydroxypropylcellulose) (HPC)",220 % of control
same,T/C,"dose: 10.0 mg/kg/injection, schedule: Q01DX009 (ip), vehicle: Klucel (hydroxypropylcellulose) (HPC)",251 % of control
same,T/C,"dose: 20.0 mg/kg/injection, schedule: Q01DX009 (ip), vehicle: Klucel (hydroxypropylcellulose) (HPC)",303 % of control
same,T/C,"dose: 40.0 mg/kg/injection, schedule: Q01DX009 (ip), vehicle: Klucel (hydroxypropylcellulose) (HPC)",388 % of control
same,T/C,"dose: 40.0 mg/kg/injection, schedule: Q01DX009 (ip), vehicle: saline with Tween-80",224 % of control
same,T/C,"dose: 60.0 mg/kg/injection, schedule: Q01DX009 (ip), vehicle: saline with Tween-80",224 % of control
